Test results as given in patent US12503475B2 (Centessa Pharmaceuticals (UK) Limited, priority 2020, dated 2025).
Read-outs that look alike come from different tables or passages of the source.

Molecular target: T1, human orexin type 2 receptor (hOX2R) (Homo sapiens, UniProt O43614)
T1 construct: expressed in transfected cells
T1 sequence (O43614 1-444): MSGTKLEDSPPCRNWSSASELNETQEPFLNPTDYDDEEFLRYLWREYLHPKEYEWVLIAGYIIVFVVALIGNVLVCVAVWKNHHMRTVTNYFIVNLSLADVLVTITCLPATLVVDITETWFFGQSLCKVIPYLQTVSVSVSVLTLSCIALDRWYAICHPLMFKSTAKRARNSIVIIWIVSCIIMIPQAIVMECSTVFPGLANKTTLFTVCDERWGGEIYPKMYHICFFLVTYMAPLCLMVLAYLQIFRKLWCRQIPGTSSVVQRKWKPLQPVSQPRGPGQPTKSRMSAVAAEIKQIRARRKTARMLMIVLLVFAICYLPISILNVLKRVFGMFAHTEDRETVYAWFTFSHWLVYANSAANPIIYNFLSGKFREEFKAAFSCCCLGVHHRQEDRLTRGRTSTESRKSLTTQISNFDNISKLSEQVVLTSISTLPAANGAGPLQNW
Assay: Measurement of orexin type 2 receptor agonist activity (FLIPR calcium fluorescence)
Type: cell-based
Conditions: for EC50: read-out: hOx2 pEC50 (converted); for Emax: CHO, read-out: hOx2 Emax (%)
How it was run: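 Agonism was read as fluorescence in cells stably expressing human OX2R. E. is the response at 10 μM relative to orexin A as full agonist (100%).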

[1] = CHO cells expressing hOX2R, FLIPR calcium fluorescence

| SMILES | EC50 [1] [nM] | Emax [1] [%] | hOx2 Emax (%) [1] | hOx2 pEC50 [1] | Emax [%] |
| --- | --- | --- | --- | --- | --- |
| CS(=O)(=O)NC1C(Cc2cccc(-c3ccccc3)c2)N(C(=O)C(F)(F)F)CC12CC2 (racemic) [Compound 4, N-(6-([1,1′-biphenyl]-3-ylmethyl)-5-(2,2,2-trifluoroacetyl)-5-azaspiro[2.4]heptan-7-yl)methanesulfonamide] | 100 to 1000 | 60 to 70 |  |  |  |
| CS(=O)(=O)NC1C(Cc2cccc(-c3ccccc3)c2F)N(C(=O)[C@H]2C[C@@H](F)C2)CC12CC2 (mixture of isomers) [Compound 91, N-(6-((2-fluoro-[1,1′-biphenyl]-3-yl)methyl)-5-((1s,3s)-3-fluorocyclobutane-1-carbonyl)-5-azaspiro[2.4]heptan-7-yl)methanesulfonamide] | 10 to 100 | 90 to 100 |  |  |  |
| CC(C)S(=O)(=O)N[C@@H]1[C@H](Cc2cccc(-c3ccccc3)c2)N(C(=O)[C@H]2CCO2)CC12CC2 [Compound 114, N-((6S,7S)-6-([1,1′-biphenyl]-3-ylmethyl)-5-((R)-oxetane-2-carbonyl)-5-azaspiro[2.4]heptan-7-yl)propane-2-sulfonamide] | 1 to 10 | 80 to 90 |  |  |  |
| CS(=O)(=O)N[C@@H]1[C@H](Cc2cccc(-c3cc(F)cc(F)c3)c2F)N(C(=O)N2CCC2)CC12CC2 [Compound 32, N-((6S,7S)-5-(azetidine-1-carbonyl)-6-((2,3′,5′-trifluoro-[1,1′-biphenyl]-3-yl)methyl)-5-azaspiro[2.4]heptan-7-yl)methanesulfonamide] | 0.0794 to 1 | 90 to 100 |  |  |  |
| CCS(=O)(=O)N[C@@H]1[C@H](Cc2cccc(-c3cccc(F)c3)c2F)N(C(=O)C(C)(C)O)CC12CC2 [Compound 184, N-((6S,7S)-6-((2,3′-difluoro-[1,1′-biphenyl]-3-yl)methyl)-5-(2-hydroxy-2-methylpropanoyl)-5-azaspiro[2.4]heptan-7-yl)ethanesulfonamide] | 1 to 10 | 90 to 100 |  |  |  |
| O=C([C@H]1CCO1)N1CC2(CC2)[C@H](NS(=O)(=O)CF)[C@@H]1Cc1cccc(-c2cccc(F)c2F)c1F [Compound 168, 1-fluoro-N-((6S,7S)-5-((R)-oxetane-2-carbonyl)-6-((2,2′,3′-trifluoro-[1,1′-biphenyl]-3-yl)methyl)-5-azaspiro[2.4]heptan-7-yl)methanesulfonamide] | 1 to 10 | 90 to 100 |  |  |  |
| C[C@](O)(C(=O)N1CC2(CC2)[C@H](NS(=O)(=O)CF)[C@@H]1Cc1cccc(-c2ccccc2)c1F)C(F)F [Compound 234, N-((6S,7S)-5-((S)-3,3-difluoro-2-hydroxy-2-methylpropanoyl)-6-((2-fluoro-[1,1′-biphenyl]-3-yl)methyl)-5-azaspiro[2.4]heptan-7-yl)-1-fluoromethanesulfonamide] | 1 to 10 |  |  |  | 90 to 100 |
| N#CC1(CNC(=O)N2CC3(CC3)[C@H](NS(=O)(=O)CF)[C@@H]2Cc2cccc(-c3ccccc3)c2F)CC1 [Compound 186, (6S,7S)-N-((1-cyanocyclopropyl)methyl)-6-((2-fluoro-[1,1′-biphenyl]-3-yl)methyl)-7-((fluoromethyl)sulfonamido)-5-azaspiro[2.4]heptane-5-carboxamide] | 0.0794 to 1 | 90 to 100 |  |  |  |
| CS(=O)(=O)N[C@H]1[C@@H](Cc2cccc(-c3cc(F)cc(F)c3)c2F)N(C(=O)N2CCC2)CC12CC2 [Compound 31, N-((6R,7R)-5-(azetidine-1-carbonyl)-6-((2,3′,5′-trifluoro-[1,1′-biphenyl]-3-yl)methyl)-5-azaspiro[2.4]heptan-7-yl)methanesulfonamide] | 10 to 100 | 90 to 100 |  |  |  |

Further lines, with some results ahead:

| EC50 [1] [nM] | Emax [1] [%] | hOx2 Emax (%) [1] | hOx2 pEC50 [1] | SMILES | Emax [%] |
| --- | --- | --- | --- | --- | --- |
| 10 to 100 | 90 to 100 |  |  | [2H]C([2H])([2H])N(C(=O)N1CC2(CC2)[C@H](NS(C)(=O)=O)[C@@H]1Cc1cc(F)cc(-c2ccccc2)c1F)C([2H])([2H])[2H] [Compound 355, (6S,7S)-6-((2,5-difluoro-[1,1′-biphenyl]-3-yl)methyl)-N,N-bis(methyl-d3)-7-(methylsulfonamido)-5-azaspiro[2.4]heptane-5-carboxamide] |  |
| 0.0794 to 1 | 90 to 100 |  |  | C[C@@H](F)C(=O)N1CC2(CC2)[C@H](NS(=O)(=O)CF)[C@@H]1Cc1cc(F)cc(-c2cc(F)cc(F)c2)c1F [Compound 414, 1-fluoro-N-((6S,7S)-5-((R)-2-fluoropropanoyl)-6-((2,3′,5,5′-tetrafluoro-[1,1′-biphenyl]-3-yl)methyl)-5-azaspiro[2.4]heptan-7-yl)methanesulfonamide] |  |
| 10 to 100 | 90 to 100 |  |  | CN(C)C(=O)N1CC2(CC2)[C@H](NS(C)(=O)=O)[C@@H]1Cc1cc(F)cc(-c2ccccc2)c1F [Compound 354, (6S,7S)-6-((2,5-difluoro-[1,1′-biphenyl]-3-yl)methyl)-N,N-dimethyl-7-(methylsulfonamido)-5-azaspiro[2.4]heptane-5-carboxamide] |  |
| 10 to 100 | 90 to 100 |  |  | [2H]c1ccc(-c2cc(F)cc(C[C@H]3[C@@H](NS(C)(=O)=O)C4(CC4)CN3C(=O)[C@H]3CCO3)c2F)cc1 [Compound 359] |  |
| 0.0794 to 1 | 90 to 100 |  |  | COC1(CNC(=O)N2CC3(CC3)[C@H](NS(=O)(=O)CF)[C@@H]2Cc2cccc(-c3ccccc3)c2F)CC1 [Compound 370, (6S,7S)-6-((2-fluoro-[1,1′-biphenyl]-3-yl)methyl)-7-((fluoromethyl)sulfonamido)-N-((1-methoxycyclopropyl)methyl)-5-azaspiro[2.4]heptane-5-carboxamide] |  |
| 1 to 10 | 90 to 100 |  |  | O=C(NCC1(F)CC1)N1CC2(CC2)[C@H](NS(=O)(=O)CF)[C@@H]1Cc1cc(F)cc(-c2ccccc2)c1F [Compound 228, (6S,7S)-6-((2,5-difluoro-[1,1′-biphenyl]-3-yl)methyl)-N-((1-fluorocyclopropyl)methyl)-7-((fluoromethyl)sulfonamido)-5-azaspiro[2.4]heptane-5-carboxamide] |  |
| 1 to 10 | 90 to 100 |  |  | O=C([C@H]1C[C@@H](F)C1)N1CC2(CC2)[C@H](NS(=O)(=O)C(F)F)[C@@H]1Cc1cccc(-c2ccccc2)c1F [Compound 201, 1,1-difluoro-N-((6S,7S)-6-((2-fluoro-[1,1′-biphenyl]-3-yl)methyl)-5-((1s,3s)-3-fluorocyclobutane-1-carbonyl)-5-azaspiro[2.4]heptan-7-yl)methanesulfonamide] |  |
| 1 to 10 | 90 to 100 |  |  | O=C([C@H](O)C(F)F)N1CC2(CC2)[C@H](NS(=O)(=O)CF)[C@@H]1Cc1cc(F)cc(-c2ccccc2)c1F [Compound 360, N-((6S,7S)-5-((S)-3,3-difluoro-2-hydroxypropanoyl)-6-((2,5-difluoro-[1,1′-biphenyl]-3-yl)methyl)-5-azaspiro[2.4]heptan-7-yl)-1-fluoromethanesulfonamide] |  |
|  |  | D (Emax ranging between 60 and 70) | *** (pEC50 ranging between 7.0 and 8.0) | COc1c(C[C@H]2[C@@H](NS(C)(=O)=O)C3(CC3)CN2C(=O)C2CC(F)C2)cccc1-c1ccccc1 (stereo partly drawn) [Compound 340, N-((6S,7S)-5-(3-fluorocyclobutane-1-carbonyl)-6-((2-methoxy-[1,1′-biphenyl]-3-yl)methyl)-5-azaspiro[2.4]heptan-7-yl)methanesulfonamide] |  |
| 1 to 10 | 90 to 100 |  |  | CCS(=O)(=O)N[C@@H]1[C@H](Cc2cccc(-c3ccccc3)c2F)N(C(=O)[C@H](O)COC)CC12CC2 [Compound 344, N-((6S,7S)-6-((2-fluoro-[1,1′-biphenyl]-3-yl)methyl)-5-((R)-2-hydroxy-3-methoxypropanoyl)-5-azaspiro[2.4]heptan-7-yl)ethanesulfonamide] |  |
